Measurements from patent US20200121665A1, “PPAR GAMMA MODULATORS FOR TREATING CYSTIC DISEASES” (Indiana University Research and Technology Corporation, priority 2013, published 2020).
Where two headings read alike, the source gives them in different places.

Tests used:
PCK rat [1] = conditions: for Statistics (a): KW % BW, significance compared to control / Statistics (a): Kidney Weight (KW), significance compared to control / KW % BW / Kidney Weight (KW) / LW % BW / Liver % Fibrocystic / Liver Weight (LW): 24 weeks
Excerpt: PCK rat animal model of slowly-progressing PKD. The PCK rat is an animal model that has a orthologous genetic mutation to the human autosomal recessive polycystic kidney disease (ARPKD), but has the phenotypic characteristics of human ADPKD, including renal and liver fibrocystic disease. The Pck gene of the rat is an orthologue to the PKHD-1 gene responsible for ARPKD. The animal model develops both kidney and liver fibrocystic diseases, and is slow progressing. […] Only females are used in the study.
Briefly, after weaning, test animals are fed a diet containing increasing doses of a PPARγ modulator, normalized to body weight, and compared to untreated control fed normal diet. A hematocrit is measured to assess the presence or absence of fluid retention. […] The untreated control group fed the same diet without any PPARγ modulators.
Animals are sacrificed and total body weight is recorded. Total kidney weight is recorded, total liver weight is recorded, and heart weight is recorded. Blood is collected via cardiac puncture, and serum and plasma samples are collected. The liver and kidney were embedded in paraffin and transversely sectioned and stained with hematoxylin, and eosin. The percent kidney weight to body weight was calculated. After histology on the kidney, renal cyst volume was determined through point count stereology methods. From the total liver weight, the percent liver to body weight was calculated. Following histology and picrosiruis red staining, the percent fibrosis can be determined through point count stereology methods. Heart weight is determined and the percent heart weight to body weight is calculated to assess heart disease, such as due to fluid retention, a reported side effect associated with PPARγ agonist treatment. Hearts are preserved in 4% paraformaldehyde. Liver enzymes, glucose levels, and ion levels are evaluated using the blood and urine samples.

PCK rat [2] = conditions: 14 week study, 20 mg/kg BW; cited from earlier work

For `CN(CCOc1ccc(CC2SC(=O)NC2=O)cc1)c1ccccn1` (centres unmarked) [Rosiglitazone, rosiglitazone], the “Statistics (a): KW % BW, significance compared to control” value (PCK rat [1]; 0.04 mg/kg BW diet) was “S”, the “Statistics (a): Kidney Weight (KW), significance compared to control” value (PCK rat [1]; 0.04 mg/kg BW diet) was “S” and the “KW % BW” value (PCK rat [1]; 0.04 mg/kg BW diet, n = 8) was 0.95 ± 0.15%. For the same molecule, the “Kidney Weight (KW)” value (PCK rat [1]; 0.04 mg/kg BW diet, n = 8) was 3.68 ± 0.14 g, the “LW % BW” value (PCK rat [1]; 0.04 mg/kg BW diet, n = 8) was 7.11 ± 0.27% and the “Liver % Fibrocystic” value (PCK rat [1]; 0.04 mg/kg BW diet, n = 8) was 35.36 ± 3.74%. The “Liver Weight (LW)” value (PCK rat [1]; 0.04 mg/kg BW diet, n = 8) was 24.23 ± 0.10 g, the “KW % BW” value (PCK rat [1]; 0.4 mg/kg BW diet, n = 8) was 1.27 ± 0.08% and the “Kidney Weight (KW)” value (PCK rat [1]; 0.4 mg/kg BW diet, n = 8) was 4.27 ± 0.22 g. The “LW % BW” value (PCK rat [1]; 0.4 mg/kg BW diet, n = 8) was 6.50 ± 0.57%, the “Liver % Fibrocystic” value (PCK rat [1]; 0.4 mg/kg BW diet, n = 8) was 36.81 ± 3.61% and the “Liver Weight (LW)” value (PCK rat [1]; 0.4 mg/kg BW diet, n = 8) was 22.05 ± 2.07 g. For the same molecule, the “Statistics (a): KW % BW, significance compared to control” value (PCK rat [1]; 4.0 mg/kg BW diet) was “S”, the “Statistics (a): Kidney Weight (KW), significance compared to control” value (PCK rat [1]; 4.0 mg/kg BW diet) was “S” and the “KW % BW” value (PCK rat [1]; 4.0 mg/kg BW diet, n = 3) was 0.94 ± 0.06%. The “Kidney Weight (KW)” value (PCK rat [1]; 4.0 mg/kg BW diet, n = 3) was 3.56 ± 0.26 g, the “LW % BW” value (PCK rat [1]; 4.0 mg/kg BW diet, n = 3) was 5.97 ± 1.38% and the “Liver % Fibrocystic” value (PCK rat [1]; 4.0 mg/kg BW diet, n = 3) was 36.17 ± 0.38%. For the same molecule, the “Liver Weight (LW)” value (PCK rat [1]; 4.0 mg/kg BW diet, n = 3) was 22.66 ± 5.39 g, the serum electrolytes (PCK rat [1]; at any concentration) was “not altered” and the “test animals died or had to be sacrificed during treatment due to cholangitis” value (PCK rat [1]; high dose group) was 9/12. For the same molecule, the glucose (PCK rat [1]; rat, in vivo) was “not observed”, the “hematocrits vs control animals” value (PCK rat [1]; rat, in vivo) was “not different from the control animals” and the “side effects (increased body weight or cholangitis)” value (PCK rat [1]; rat, in vivo) was “no detected side effects”.

For `CCc1ccc(CCOc2ccc(CC3SC(=O)NC3=O)cc2)nc1` (centres unmarked) [pioglitazone], the “kidney function by serum analysis” value (PCK rat [2]) is given as “well-preserved kidney function” and the “liver enzymes by serum analysis” value (PCK rat [2]) is given as “increased”.
